Experimental findings from patent US20030124643A1, “Method and kit forrapid concurrent identification and antimicrobial susceptibility testing of microorganisms from broth culture” (priority 2001, published 2003) are described below.

Molecules are shown by their SMILES.

The subject of one experiment is E. coli. The experiment is described as follows: Kit plate disk-quarter diffusion AST, mixed culture. The following applies: mixed culture with Staph. aureus, Cephalothin chamber 70', region confirmed by gram stain, FIG. 37. The class given is cell-based. The text has this:
(§1) FIGS. 37A to 37C illustrates the growth of two microorganisms, Staph. aureus and E. coli, on the same preferred embodiment kit plate. FIGS. 37B and 37C are two different views of an enlargement of the AST test chambers (67′-70′ and 72′-75′). FIG. 37B viewed with back lighting. FIG. 37C viewed with front lighting. Two AST test chambers are featured in these figures: Mueller Hinton agar plus antimicrobial Cephalothin chamber 70′ and Mueller Hinton agar plus antimicrobial Enrofloxicin chamber 73′. Two margins are observable in each chamber: E coli & cephalothin margin 180 and Staph. aureus & cephalothin margin 181 for Cephalothin chamber 70′; and Staph. aureus & Enrofloxicin margin 182 and E. coli & Enrofloxicin margin 183 for Enrofloxicin chamber 73′. The region 176A is between the E. coli margin 180 and Staph. aureus margin 181 in Cephalothin chamber 70′. The region 178A is between the Staph. aureus margin 182 and the E. coli margin 183 in Enrofloxicin chamber 73′. Illustrated in FIG. 38 are two gram stains 176B and 178B of a sample from regions 176A and 178A respectively.
(§2) […] of this dilution is added per chamber. FIG. 17 illustrates the first chamber of the top two rows inoculated using dilution 140. Eighty micro liters of dilution 140 is added per chamber to the ten upper test chambers. […]

A further experiment concerns Staph. aureus. The experiment is described as above. The class given is cell-based. To be noted: mixed culture with E. coli, Enrofloxicin chamber 73', region confirmed by gram stain, FIG. 37.
Source text: as §1, §2

For the molecule `CC(=O)OCC1=C(C(=O)O)N2C(=O)[C@@H](NC(=O)Cc3cccs3)[C@H]2SC1` [Cephalothin], in the experiment on E. coli, the “AST result in growth region 176A, between margins 180 and 181” value is listed as “resistance”.
With `CCN1CCN(c2cc3c(cc2F)c(=O)c(C(=O)O)cn3C2CC2)CC1` [Enrofloxicin], the “AST result in growth region 178A, between margins 182 and 183” value in the experiment on Staph. aureus was “resistance”.
